Measured values published in article PMC8009417, “Selective killing of homologous recombination-deficient cancer cell lines by inhibitors of the RPA:RAD52 protein-protein interaction” (PLoS ONE, 2021).

Legend:
[1] = tested on: BRCA1-deficient UWB1.289 ovarian cancer cells (BRCA1-); experiment: Cell viability assay (PrestoBlue, 72 h), UWB1.289; format: cell-based; conditions: Homo sapiens, UWB1289, estimated from the graphs
Excerpt: BRCA1-deficient UWB1.289 cells corrected with wild-type BRCA1 gene (BRCA1+; closed triangle) and parental BRCA1-deficient UWB1.289 (BRCA1-; closed circle). Two PARPi-resistant cell lines derived from UWB1.289, UWB1.289.SYr12 (closed diamond) and UWB1.SYr13 (X), were also examined.
UWB1.289 (a gift from Dr. Lee Zou, Harvard Medical School, Boston, MA) were derived from a serous ovarian carcinoma with a germline BRCA1 mutation and a deletion of the wild-type allele. […] Two PARP-resistant cell lines, SYr12 and SYr13, were derived from the UWB1.289. The Mammary Epithelial growth media, along with SupplementMix solution for UWB1 cell lines, were obtained from PromoCell GmbH and mixed as described.
Cells were seeded 5 x 10^3 cells per well in 96-well plates in a 90 μL volume per well one day before treatment. Cells in 96-well plates were incubated with increasing concentrations of the compound or vehicle control (1% DMSO) for 72 hours. Each treatment plate contained nine concentrations of a compound in sextuplicate. Growth inhibition was determined using PrestoBlue reagent (Life Technologies, #A13261). Fluorescent measurements were taken using a Spectramax M5 plate reader (MDS). To assess cells’ replication in the absence of compounds as a control, six wells on each plate were treated with vehicle to be read in triplicate at the initial treatment day (T0) and at 72-hour read (T100).

RAD52 protein level = experiment: Simple Western of RAD52 protein level after treatment; format: cell-based, human; conditions: 72 h at doses near EC50
Protocol: (§1) Fig 6 The effect of mitoxantrone treatment on RAD52 levels and DNA damage. […] Data and ANOVA statistical analyses are described in the material and methods section. Significance statistics are shown with single, double, or triple asterisks representing P<0.05, P<0.005, or P<0.0005, respectively.
(§2) For western analysis, each cell line was grown and treated as described above. Protein levels were measured in lysates by size separation with a ProteinSimple PeggySue instrument following the manufacturer’s recommendations. Lysates were prepared using the NanoPro Cell Lysis Kit with Bicine/CHAPS (ProteinSimple CBS403) at 0.75 mg/mL concentration when mixed with master mix (containing SDS, DTT and fluorescent molecular weight markers; ProteinSimple PS-FL01-8) and heated for 5 min at 95°C. Electrophoretic nanocapillary size separation of proteins was performed using default settings. After separation, UV light cross-linked proteins to the capillary wall. Capillaries were then washed and incubated with primary antibodies, washed, and incubated with anti-rabbit secondary antibody conjugated with HRP (ProteinSimple DM-001). Finally, luminol and peroxide were applied to generate chemoluminescence which was imaged by a CCD camera. Primary antibody concentrations were optimized and were diluted as follows: Abcam anti-RAD52 antibody (ab18263, diluted 1:25), R&D Systems Human Phospho-histone H2AX (S139) antibody (AF2288, diluted 1:100), and Cell Signalling Technology Pan-Actin antibody (#4968, diluted 1:2500).
(§3) The Simple western data were processed and analyzed with ProteinSimple Compass software. Peak areas were calculated using dropped lines. Each lysate was analyzed for RAD52 and γH2AX levels three times and for Actin two times (see S2 Fig). Replicate peak areas for RAD52 and γH2AX were averaged, divided by the average Actin peak area of that sample, multiplied by 100 and graphed using SigmaPlot 7.0.

γH2AX (DNA damage) = experiment: Simple Western of γH2AX (DNA damage) after treatment; format: cell-based, human; conditions: 72 h at doses near EC50
Protocol: as §1, §2, §3

O=C1c2c(O)ccc(O)c2C(=O)c2c(NCCNCCO)ccc(NCCNCCO)c21 [Mitoxantrone, mitoxantrone]
EC50 [1]: 200 nM
Change of RAD52 level with treatment (RAD52 protein level; HCC1937 cells): the level of RAD52 increased
Change of RAD52 level with treatment (RAD52 protein level; PE01 cells): dramatic reduction in RAD52 protein
Change of RAD52 level with treatment (RAD52 protein level; UWB1 cells): the level of RAD52 decreased
DNA damage (γH2AX) from treatment (γH2AX (DNA damage); HCC1937 cell lines): low to negligible levels of DNA damage
DNA damage (γH2AX) from treatment (γH2AX (DNA damage); PE01 cells): substantial increase in DNA damage
DNA damage (γH2AX) from treatment (γH2AX (DNA damage); UWB1 cell lines): low to negligible levels of DNA damage
